# Results as given in US20210323949A1, “COMPOUNDS AND METHODS FOR INHIBITION OF MULTIPLE MYELOMA” (FLORIDA ATLANTIC UNIVERSITY BOARD OF TRUSTEES, priority 2018, published 2021).
# Experiments:
# [1] = system: mature osteoclasts; assay: Inhibitor added to mature osteoclasts, TRAP-positive osteoclasts counted; settings: TRAP positive osteoclasts counted after 5 days
# [2] = system: MSCs and monocytic cells (RAW 267); assay: Proliferation of stromal cells of the bone microenvironment
# [3] = system: bone marrow-derived macrophages (BMMs); settings: bone marrow co-cultures/BMMs with M-CSF and RANKL, counted after 5 days
# [4] = system: 5TGM1 luciferase expressing multiple myeloma cells; assay: 5TGM1 multiple myeloma mouse model; type: in vivo, Mice (C57BL/6 KalwRij)
# Method: FIG. 5A is a set of images and FIG. 5B and FIG. 5C are graphs showing the efficacy of RF-036 (MMP-13i) for the treatment of multiple myeloma. FIG. 5A, 5B: Mice (C57BL/6 KalwRij) were inoculated with 5TGM1 luciferase expressing multiple myeloma cells (1×10^6) and after 10 days randomized into vehicle (n=7) or MMP-13i (n=6) groups. Mice were treated daily with RF-036 at 2 mg/kg via intraperitoneal injection. Bioluminescence (FIG. 5A) was quantitated every 3-4 days (FIG. 5B). […] Asterisks denote statistical significance.
# FIG. 7 is a Kaplan-Meier curve of overall survival time of 5TGM1 multiple myeloma bearing mice treated with RF-036 (MMP-13i) (n=6; 2 mg/kg daily) or vehicle control (n=7). The median survival time for the RF-036 group was 46 days compared to 41 for the vehicle control group.
# The overall survival time of 5TGM1 multiple myeloma bearing mice treated with RF-036 (MMP-13i) (n=6; 2 mg/kg daily) was compared to vehicle control (n=7) (FIG. 7). The median survival time for the RF-036 group was 46 days compared to 41 for the vehicle control group.
# [5] = system: multiple myeloma cell lines; assay: Viability/proliferation of multiple myeloma cell lines; type: cell-based; settings: over 48 h
smiles,measurement,setting,value
CNC(=O)[C@@H](NC(=O)c1ccc(-c2ccc(CSc3nc4c(c(=O)[nH]3)CCC4)c(F)c2)o1)C(C)C [RF-036],cell viability of mature osteoclasts,[1],no effect on cell viability
same,effects on stromal cells (MSCs and monocytes),[2],minimal effects
same,osteoclast formation (number of TRAP-positive osteoclasts per well),[3],significantly mitigated osteoclast formation
same,IgG2b in serum (readout for tumor burden),"[4]; 2 mg/kg daily i.p., day 28, vs vehicle",significant differences between the vehicle and RF-036 groups
same,growth of multiple myeloma in vivo (bioluminescence),"[4]; 2 mg/kg daily, intraperitoneal injection",significantly reduces the growth of multiple myeloma
same,median survival time,"[4]; 5TGM1 bearing mice, 2 mg/kg daily, n=6",46 days
same,overall survival,"[4]; multiple myeloma bearing mice, 2 mg/kg daily",increases overall survival
same,impact on viability of multiple myeloma cell lines,[5],up to 50%
